In assay [1] the test system is colistin resistant A. baumannii clinical isolates. Briefly: MIC determination and classic checkerboard assays (colistin, NAC). The settings on record: for MIC: Acinetobacter baumannii. The format is cell-based, Acinetobacter baumannii. As for the experimental part:
(§1) In vitro antimicrobial synergism between NAC and colistin was determined following EUCAST guidelines. In particular, the total fractional inhibitory concentration (ΣFIC) was calculated as follows: ΣFIC equals FIC of agent A plus FIC of agent B, where the FIC of agent A or B is the minimum inhibitory concentration (MIC) of agent A or B in the presence of the other divided by the MIC of agent A or B alone. Synergism was defined as a ΣFIC value of <0.5.
Classic checkerboard assays were used to investigate potential synergism between colistin (range 0.25-256 μg/ml) and NAC (range 0.5-32 mg/ml). Fraction inhibitory concentration indices (FICIs) were calculated, and synergism was defined as FICI values <0.5. Synergy between colistin and NAC was also confirmed by time-kill assays performed with one isolate, using two different concentrations of colistin (2 and 8 μg/ml, representing concentrations achievable in serum and epithelial lining fluid—ELF, respectively) and NAC (1.6 and 8 mg/ml, likely achievable in ELF by topical administration).

The subject of assay [2] is S. maltophilia clinical isolates. Described as above. The format is cell-based, Stenotrophomonas maltophilia. Conditions: for MIC: Stenotrophomonas maltophilia. The procedure:
as §1
Twenty S. maltophilia clinical isolates were tested, including also four isolates from patients affected by cystic fibrosis (CF). […] Synergism between colistin (range 0.25-256 μg/ml) and NAC (range 0.5-32 mg/ml) was investigated by classic checkerboard assays. Fraction inhibitory concentration indices (FICIs) were calculated, and synergism was defined as FICI values <0.5. Time-kill assays were performed with two clinical isolates (including one strain resistant to trimethoprim-sulphamethoxazole, and one from CF). For this purpose, two different concentrations of colistin (2 and 8 μg/ml, representing concentrations achievable in serum and epithelial lining fluid—ELF, respectively) and NAC (1.6 and 8 mg/ml, likely achievable in ELF by topical administration) were tested alone and in combination.

Where [3] appears, read: seven colistin resistant A. baumannii clinical isolates.
Where [4] appears, read: twenty S. maltophilia clinical isolates.

For orientation: MIC means the lowest concentration found to suppress growth. As usually defined, the MIC50 is the lowest concentration that inhibits either 50% of growth or 50% of the strains tested, depending on the study. By MIC90 is commonly meant an inhibitory concentration at the 90% level, which refers to growth in some studies and to a panel of isolates in others.

Like-named read-outs stand apart in the source and are kept apart here. A value given as a limit tells only on which side of the number the result lay.

On to `CC(=O)N[C@@H](CS)C(=O)O` [NAC, N-acetylcysteine], for which the MIC is greater than 32 mg/mL in assay [1] (isolate N50, read-out: NAC MIC); greater than 32 mg/mL in assay [1] (the remaining A. baumannii isolates, read-out: MIC of NAC); 32 mg/mL in assay [1] (two of seven A. baumannii isolates, read-out: MIC of NAC); 16 mg/mL in assay [2] (nine S. maltophilia isolates); greater than 32 mg/mL in assay [2] (one S. maltophilia isolate); 32 mg/mL in assay [2] (the remaining S. maltophilia isolates).
Turning to colistin sulfate, the “Colistin MIC” value in assay [1] (isolate N50) stood at 0.016 mg/mL. In assay [1] (setting [3]), the MIC50 came to 0.064 mg/mL, the MIC90 was found to be 0.128 mg/mL and the “colistin MIC range” value was in the range of 0.016 to 0.256 mg/mL. In addition, the “colistin 8 μg/ml as multiple of MIC” value in assay [1] (strain Z165) came to 0.25 ×MIC. Besides, the “colistin 8 μg/ml as multiple of MIC” value in assay [1] (strain Z167) came out at 0.06 ×MIC. Further, in assay [2] (setting [4]), the MIC50 came out at 0.016 mg/mL and the MIC90 was 0.064 mg/mL.

These data come from US12102660B2, “Association of N-acetylcysteine and colistin for use in bacterial infections” (Zambon S.P.A., priority 2017, dated 2024).
